Laboratory results reported in ChEMBL document CHEMBL4765351, “Photoeradication of bacteria with porphycenes: Substituent effects on the efficiency” (Eur J Med Chem, 2020).
The source made the active and inactive calls. The calls are words filed in the database; no cut-off is given here.

Experiments:
[1] = Induction of singlet oxygen generation in toluene solution assessed as singlet oxygen quantum yield irradiated with 369 nanometer LED light at 300 mW by spectrometric method; type: functional
[2] = Induction of singlet oxygen generation in pluronic solution in deuterated water assessed as singlet oxygen quantum yield irradiated with 635 nanometer LED light at 300 mW by spectrometric method; type: functional
[3] = Induction of hydroxy radical generation in pluronic solution irradiated with 635 nanometer LED light at 6 mW by HPF fluorescence method
[4] = Induction of […] generation in pluronic solution irradiated with 369 nanometer LED light at 6 mW by HPF fluorescence method
[5] = system: Enterococcus faecalis; assay: Photodynamic antibacterial activity against Enterococcus faecalis 29212 assessed as bacterial eradication by measuring log reduction at 7 uM preincubated for 30 mins in dark condition followed by 0.6 J/cm2.min LED light irradiation for 120 mins; type: functional, ATCC 29212
[6] = system: Enterococcus faecalis; assay: Photodynamic antibacterial activity against Enterococcus faecalis 29212 assessed as bacterial eradication at 7 uM preincubated for 30 mins in dark condition followed by 72 J/cm2 LED light irradiation; type: functional, ATCC 29212
[7] = system: HeLa; assay: Photodynamic anticancer activity against human HeLa cells; type: functional, cell-based
[8] = Absorption property in pluronic/PBS solution assessed as diode array corresponding wavelength of photodynamic inactivation by measuring electronic absorption spectra by spectrophotometry; type: physicochemical; conditions: buffer
[9] = system: Enterococcus faecalis; assay: Photodynamic antibacterial activity against Enterococcus faecalis 29212 assessed as bacterial eradication at 7 uM preincubated for 30 mins in dark condition followed by 0.6 J/cm2.min LED light irradiation for 50 mins; type: functional, ATCC 29212; conditions: time 80 min, 1.333 h
[10] = system: Enterococcus faecalis; assay: Photodynamic antibacterial activity against Enterococcus faecalis 29212 assessed as bacterial eradication at 7 uM preincubated for 30 mins in dark condition followed by 30 J/cm2 LED light irradiation; type: functional, ATCC 29212; conditions: 0.5 h

Row | SMILES | Activity [1] | Activity [2] | Activity [3] | Activity [4] | Activity ([5]; time 150 min, 2.5 h) | Activity ([6]; 0.5 h) [%] | Activity [7] | Activity [8] | Activity [9] [%] | Activity [10] [%] | Activity ([5]; ATCC 29212, time 150.0 min) | Activity ([6]; ATCC 29212)
1 | COCCC1=Cc2nc1ccc1[nH]c(cc1CCOC)c1nc(ccc3[nH]c2cc3CCOC)C(CCOC)=C1 | 0.32 | 0.23 | Active | Active | 6 | 100 | Active | Active |  |  |  | 
2 | C1=Cc2nc1ccc1ccc([nH]1)c1nc(ccc3ccc2[nH]3)C=C1 | 0.3 | 0.28 | Active | Active |  |  | Active | Active | 100 | 100 |  | 
3 | CC(C)(C)C1=Cc2nc1ccc1[nH]c(cc1C(C)(C)C)c1nc(ccc3[nH]c2cc3C(C)(C)C)C(C(C)(C)C)=C1 | 0.38 | 0.21 | Active | Active |  |  | inactive | Active |  |  | inactive | inactive
4 | CC(C)(C)C1=Cc2nc1ccc1ccc([nH]1)c1nc(ccc3[nH]c2cc3C(C)(C)C)C=C1 | 0.36 | 0.22 | Active | Active |  |  |  | Active |  |  | inactive | inactive
5 | CC(C)(C)c1cc2[nH]c1ccc1nc(c3ccc(ccc4nc2C=C4)[nH]3)C=C1 | 0.32 | 0.23 | Active | Active | 3 |  |  | Active |  |  |  | inactive
